Experimental data from the NIST ThermoML archive (doi:10.1016/j.jct.2012.06.020).

Experiment: mn = molality of the nth substance listed, in mol/kg
Conditions: 101 kPa, Liquid; for mass density: Vibrating tube method; for speed of sound: OPTIME 1.0 from OPTEL

O=S(=O)([O-])C(F)(F)F.O=S(=O)([O-])C(F)(F)F.O=S(=O)([O-])C(F)(F)F.[Gd+3] [gadolinium (III) trifluoromethanesulfonate] + C[S+](C)[O-]
Conditions	mass density, 293.15 K [kg/m3]	mass density, 298.15 K [kg/m3]	mass density, 303.15 K [kg/m3]	mass density, 313.15 K [kg/m3]	mass density, 323.15 K [kg/m3]	mass density, 333.15 K [kg/m3]	speed of sound, 298.15 K [m/s]
m1 = 0.01963	1108.73	1103.71	1098.7	1088.67	1078.66	1068.64	1481.8
m1 = 0.02663	1111.79	1106.78	1101.77	1091.75	1081.75	1071.74	1481
m1 = 0.03818	1116.88	1111.88	1106.87	1096.87	1086.88	1076.89	1479.6
m1 = 0.04655	1120.6	1115.6	1110.6	1100.61	1090.63	1080.64	1478.6
m1 = 0.05549	1124.6	1119.6	1114.6	1104.62	1094.65	1084.68	1477.5
m1 = 0.06913	1130.74	1125.75	1120.76	1110.8	1100.84	1090.89	1475.9
m1 = 0.08877	1139.72	1134.74	1129.76	1119.82	1109.89	1099.96	1473.6
m1 = 0.1071	1148.2	1143.23	1138.26	1128.34	1118.43	1108.52	1471.5
m1 = 0.124	1156.16	1151.2	1146.24	1136.34	1126.45	1116.58	1469.4
m1 = 0.1457	1166.53	1161.57	1156.62	1146.75	1136.88	1127.04	1467
m1 = 0.1629	1174.88	1169.93	1165	1155.14	1145.31	1135.48	1465
